Earlier results, collected in US11980701B2, “Joint implant with constant and continuous release of therapeutic agent” (Diffusion RX, Inc., priority 2021, dated 2024).

Columns and labels:
cartilage = conditions: at low doses
[1] = test system: articular joint pain/inflammation; conditions: known treatments

C[C@]12CCC(=O)C=C1CC[C@@H]1[C@@H]2[C@@H](O)C[C@@]2(C)[C@H]1CC[C@]2(O)C(=O)CO [hydrocortisone]
cartilage effect in in vivo studies (cartilage): significant cartilage protection

C[C@]12CCC(=O)C=C1CC[C@@H]1[C@@H]2C(=O)C[C@@]2(C)[C@H]1CC[C@]2(O)C(=O)CO [cortisone shot, cortisone]
length of effectiveness (FIG. 5A) [1]: six to twelve

C[C@]12C=CC(=O)C=C1CC[C@H]1[C@@H]3C[C@@H](O)[C@](O)(C(=O)CO)[C@@]3(C)C[C@H](O)[C@@]12F [triamcinolone]
cartilage effect in in vivo studies (cartilage): significant cartilage protection
